Source: US20180273528A1 (LES LABORATOIRES SERVIER, priority 2015, published 2018)

What was measured:
[1] = target: T1, His-TEV-DYRK1A Kinase domain (aa127-485) (Homo sapiens, UniProt Q13627); assay: Kinase ADP assay (ADP Hunter), DYRK1A kinase domain; format: biochemical; conditions: 20 μM ATP
T1 construct: His-TEV-DYRK1A Kinase domain (aa127-485); His tag (N); TEV protease cleavage site (N)
Outline: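 Compounds incubated 10 min at 30 °C with 20 nM enzyme, 40 μM peptide substrate and 20 μM ATP in pH 7.4 Hepes buffer with 10 mM MgCl2. ADP formed detected by ADP Hunter Plus reagents after 20 min at 30 °C, fluorescence read at 590 nm.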

DYRK1A [2] = target: T2, DYRK1A (Homo sapiens, UniProt Q13627); assay: Kinase TR-FRET assay, DYRK1A; format: biochemical; set-up: full-length, wild-type human DYRK1A (NM_001396) with an HA tag; expressed in transfected cells; host or cells: human U2-OS osteosarcoma cells, transient transfection of a pcDNA3.1 plasmid; conditions: full-length human kinase, 10 μM ATP
Experimental: (§1) Inhibition of the enzymatic activity of human kinases was evaluated in a Time-Resolved Fluorescence Resonance Energy Transfer (TR-FRET) assay in 384-well reaction plates. […] Test compounds of the invention were added in reaction buffer at a range of concentrations from 0.1 nM to 30 μM. Following addition of EDTA (Sigma E7889, 10 mM) to stop the reaction, Europium-labelled mouse monoclonal antibody recognizing phospho-Thr232 in MBP (Perkin Elmer TRF0201, 1 nM) was added.

CDK9 = target: T3, CDK9 (Homo sapiens, UniProt P50750); assay: Kinase TR-FRET assay, CDK9; format: biochemical; conditions: full-length human kinase, 10 μM ATP
T3 construct: full-length human kinases from Carna Biosciences; purchased Carna Biosciences 04-110
T3 sequence (P50750 whole entry): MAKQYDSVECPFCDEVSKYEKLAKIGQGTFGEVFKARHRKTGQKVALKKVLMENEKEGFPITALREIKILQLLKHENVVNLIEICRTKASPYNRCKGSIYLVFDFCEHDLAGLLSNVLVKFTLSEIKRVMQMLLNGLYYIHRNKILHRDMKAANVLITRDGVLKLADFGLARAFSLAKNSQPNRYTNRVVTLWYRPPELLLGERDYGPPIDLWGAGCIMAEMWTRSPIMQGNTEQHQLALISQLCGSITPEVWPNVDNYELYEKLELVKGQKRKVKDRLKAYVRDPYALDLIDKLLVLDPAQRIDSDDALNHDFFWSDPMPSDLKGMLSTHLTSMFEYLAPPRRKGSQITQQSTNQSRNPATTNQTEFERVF
T3 sequence (O60563 whole entry partner): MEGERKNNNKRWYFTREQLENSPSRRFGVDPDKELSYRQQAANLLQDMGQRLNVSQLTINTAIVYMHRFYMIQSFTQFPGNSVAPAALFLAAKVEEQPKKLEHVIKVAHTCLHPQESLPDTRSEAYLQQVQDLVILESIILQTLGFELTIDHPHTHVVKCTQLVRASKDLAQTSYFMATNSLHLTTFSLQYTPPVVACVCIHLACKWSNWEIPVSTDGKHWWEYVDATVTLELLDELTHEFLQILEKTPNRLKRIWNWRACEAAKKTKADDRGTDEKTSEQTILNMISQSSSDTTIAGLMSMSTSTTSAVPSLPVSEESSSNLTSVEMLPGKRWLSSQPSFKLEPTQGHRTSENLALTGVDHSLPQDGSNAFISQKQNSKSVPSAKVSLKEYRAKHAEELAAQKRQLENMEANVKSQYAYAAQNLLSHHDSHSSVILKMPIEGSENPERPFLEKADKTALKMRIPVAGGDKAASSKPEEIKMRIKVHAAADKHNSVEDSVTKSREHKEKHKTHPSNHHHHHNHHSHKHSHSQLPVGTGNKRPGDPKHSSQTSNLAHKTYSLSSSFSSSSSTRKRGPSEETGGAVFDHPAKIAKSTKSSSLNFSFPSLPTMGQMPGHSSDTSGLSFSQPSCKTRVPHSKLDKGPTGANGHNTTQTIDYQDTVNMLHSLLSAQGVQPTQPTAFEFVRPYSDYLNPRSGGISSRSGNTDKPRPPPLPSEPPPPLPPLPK
Experimental: Inhibition of the enzymatic activity of human kinases was evaluated in a Time-Resolved Fluorescence Resonance Energy Transfer (TR-FRET) assay in 384-well reaction plates. In this assay, full-length human kinases from Carna Biosciences—DYRK1A (NM_001396, ref. 04-130; 2.0 ng/μl), DYRK1B (NM_004714, ref. 04-131; 1.2 ng/p), CLK1 (NM_001162407, ref. 04-126; 0.7 ng/μl), CDK9 (NM_001261, ref. 04-110; 0.9 ng/μl), or GSK3β (NM_001146156, ref. 04-141; 2.0 ng/μl—were incubated for 40 minutes (DYRK1A and DYRK1B) or 100 minutes (CLK1, CDK9 and GSK3β) at room temperature with ATP (Sigma A2383, 10 μM) and a ULight™-labelled human Myelin Basic Protein (MBP) peptide substrate (Perkin Elmer TRF0109, 100 nM) in a reaction buffer composed of 50 mM HEPES pH7.4, 1 mM EGTA, 10 mM MgCl2, 2 mM DTT and 0.01% Tween20. Test compounds of the invention were added in reaction buffer at a range of concentrations from 0.1 nM to 30 μM. Following addition of EDTA (Sigma E7889, 10 mM) to stop the reaction, Europium-labelled mouse monoclonal antibody recognizing phospho-Thr232 in MBP (Perkin Elmer TRF0201, 1 nM) was added. After one hour, the reaction plates were read using a fluorescence reader (EnVision®, Perkin Elmer) at 620 nm and 665 nm (excitation at 340 nm); when the Europium donor fluorophore is excited by light at 340 nm, an energy transfer (620 nm) to the acceptor occurs, which will then emit light at 665 nm.

DYRK1A [3] = target: T2, DYRK1A; assay: Cellular DYRK1 autophosphorylation assay in U2-OS cells; format: cell-based; set-up: full-length, wild-type human DYRK1A (NM_001396) with an HA tag; expressed in transfected cells; host or cells: human U2-OS osteosarcoma cells, transient transfection of a pcDNA3.1 plasmid; conditions: U2-OS cells transfected with HA-tagged human DYRK1A, 5 hours exposure; read-out: IC50 (μM) P-Ser520-Dyrk1A -Cell assay
Outline: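 U2-OS cells treated with a compound concentration range for 5 h. Phospho-Ser520-DYRK1A measured by western blot densitometry or Mesoscale ELISA. IC50 from dose-response curves; for blots, ratio of phospho-Ser520 to total DYRK1A signal.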

DYRK1B = target: T4, DYRK1B (Homo sapiens, UniProt Q9Y463); assay: Kinase TR-FRET assay, DYRK1B; format: biochemical; conditions: full-length human kinase, 10 μM ATP
T4 construct: full-length human kinases from Carna Biosciences; purchased Carna Biosciences 04-131
T4 sequence (Q9Y463 whole entry): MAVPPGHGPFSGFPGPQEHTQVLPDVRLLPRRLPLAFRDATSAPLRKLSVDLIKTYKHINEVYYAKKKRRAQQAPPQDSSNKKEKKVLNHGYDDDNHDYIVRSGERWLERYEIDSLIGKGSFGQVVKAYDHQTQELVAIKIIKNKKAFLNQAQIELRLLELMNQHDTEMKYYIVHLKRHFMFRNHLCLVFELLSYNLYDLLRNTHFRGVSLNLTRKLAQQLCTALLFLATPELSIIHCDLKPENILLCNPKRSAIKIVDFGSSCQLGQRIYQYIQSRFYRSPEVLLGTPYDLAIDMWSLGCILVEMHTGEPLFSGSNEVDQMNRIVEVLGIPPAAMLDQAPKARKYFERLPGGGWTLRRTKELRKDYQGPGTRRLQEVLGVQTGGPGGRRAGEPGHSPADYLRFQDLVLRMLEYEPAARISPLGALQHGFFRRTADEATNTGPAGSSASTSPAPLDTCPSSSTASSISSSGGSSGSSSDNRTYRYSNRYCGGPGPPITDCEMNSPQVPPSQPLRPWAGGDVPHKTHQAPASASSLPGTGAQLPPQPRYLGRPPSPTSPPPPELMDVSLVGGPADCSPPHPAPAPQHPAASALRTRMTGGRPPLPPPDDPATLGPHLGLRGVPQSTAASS
Experimental: as §1

Row | Compound | IC50 [1] [µM] | IC50 (DYRK1A [2]) [µM] | IC50 (CDK9) [µM] | IC50 (DYRK1A [3]) [µM] | IC50 (DYRK1B) [µM]
1 | Cc1nc2ccc(-c3cc(N)nc(N)c3)nc2n1CCO [Example 3, 2-[5-(2,6-diaminopyridin-4-yl)-2-methyl-3H-imidazo[4,5-b]pyridin-3-yl]ethanol] | 0.02 | 0.02 | 2.57 | 0.23 | –
2 | Cc1nc2ccc(-c3cc(N)nc(N)c3)nc2n1Cc1cccnc1 [Example 7, 4-[2-methyl-3-(pyridin-3-ylmethyl)-3H-imidazo[4,5-b]pyridin-5-yl]pyridine-2,6-diamine] | 0.079 | 0.07 | 2.38 | – | –
3 | Cc1nc2ccc(-c3cc(N)nc(N)c3)nc2n1CCc1cnn(-c2ccccc2)c1 [Example 21, 4-{2-methyl-3-[2-(1-phenyl-1H-pyrazol-4-yl)ethyl]-3H-imidazo[4,5-b]pyridin-5-yl}pyridine-2,6-diamine] | 0.053 | 0.015 | 12.5 | – | –
4 | Cc1nc2ccc(-c3cc(N)nc(N)c3)nc2n1CC(F)(F)F [Example 28, 4-[2-methyl-3-(2,2,2-trifluoroethyl)-3H-imidazo[4,5-b]pyridin-5-yl]pyridine-2,6-diamine] | – | – | 5.7 | – | –
5 | Cc1nc2ccc(-c3cc(N)nc(N)c3)nc2n1Cc1cc(OC(F)(F)F)ccc1F [Example 50, 4-{3-[2-fluoro-5-(trifluoromethoxy)benzyl]-2-methyl-3H-imidazo[4,5-b]pyridin-5-yl}pyridine-2,6-diamine] | 0.057 | 0.029 | 1.99 | – | –
6 | Cc1nc2ccc(-c3cc(N)nc(N)c3)nc2n1C(C)C [Example 53, 4-[2-methyl-3-(propan-2-yl)-3H-imidazo[4,5-b]pyridin-5-yl]pyridine-2,6-diamine] | – | – | 1.31 | – | –
7 | Cc1nc2ccc(-c3cc(N)nc(N)c3)nc2n1CC1CCCCC1 [Example 55, 4-[3-(cyclohexylmethyl)-2-methyl-3H-imidazo[4,5-b]pyridin-5-yl]pyridine-2,6-diamine] | 0.024 | 0.002 | – | 0.16 | 0.021
8 | Cc1nc2ccc(-c3cc(N)nc(N)c3)nc2n1C12CC3CC(CC(C3)C1)C2 [Example 56, 4-{2-methyl-3-tricyclo[3.3.1.1^3,7]dec-1-yl-3H-imidazo[4,5-b]pyridin-5-yl}pyridine-2,6-diamine] | 0.015 | 0.009 | 0.357 | – | –
9 | CCCc1nc2ccc(-c3cc(N)nc(N)c3)nc2n1C1CCCC1 [Example 160, 4-(3-cyclopentyl-2-propyl-3H-imidazo[4,5-b]pyridin-5-yl)pyridine-2,6-diamine] | 0.024 | 0.003 | – | 0.144 | 0.068
10 | Cn1c(C(F)(F)F)nc2ccc(-c3cc(N)nc(N)c3)nc21 [Example 229, 4-[3-methyl-2-(trifluoromethyl)-3H-imidazo[4,5-b]pyridin-5-yl]pyridine-2,6-diamine] | 0.081 | 0.061 | – | – | –
11 | CCCCn1c(C)nc2ccc(-c3cc(N)nc(NC(=O)COc4ccccc4)c3)nc21 [Example 230, N-[6-amino-4-(3-butyl-2-methyl-3H-imidazo[4,5-b]pyridin-5-yl)pyridin-2-yl]-2-phenoxyacetamide] | 0.928 | 0.221 | – | – | –
12 | CCCCn1c(C)nc2ccc(-c3cc(N)nc(NC(=O)c4ccccc4Cl)c3)nc21 [Example 233, N-[6-amino-4-(3-butyl-2-methyl-3H-imidazo[4,5-b]pyridin-5-yl)pyridin-2-yl]-2-chlorobenzamide] | 0.303 | 0.224 | – | – | –
13 | CCCCn1c(C)nc2ccc(-c3cc(N)nc(NC(=O)C4CCCCC4)c3)nc21 [Example 234, N-[6-amino-4-(3-butyl-2-methyl-3H-imidazo[4,5-b]pyridin-5-yl)pyridin-2-yl]cyclohexanecarboxamide] | 0.236 | 0.09 | – | – | –
14 | CCCCn1c(C)nc2ccc(-c3ccnc(N)c3)nc21 [Example 236, 4-(3-butyl-2-methyl-3H-imidazo[4,5-b]pyridin-5-yl)pyridin-2-amine] | 0.023 | 0.013 | – | – | 0.018
15 | Cc1nc2ccc(-c3ccnc(N)c3)nc2n1CC1CC1 [Example 238, 4-[3-(cyclopropylmethyl)-2-methyl-3H-imidazo[4,5-b]pyridin-5-yl]pyridin-2-amine] | 0.05 | 0.009 | – | – | 0.02

More lines, in order of falling IC50 [1], values ahead:

Row | IC50 [1] [µM] | IC50 (DYRK1A [2]) [µM] | IC50 (CDK9) [µM] | IC50 (DYRK1A [3]) [µM] | IC50 (DYRK1B) [µM] | Compound
16 | 0.014 | 0.008 | – | – | 0.016 | CCc1nc2ccc(-c3cc(N)nc(N)c3)nc2n1C1Cc2ccccc2C1 [Example 158, 4-[3-(2,3-dihydro-1H-inden-2-yl)-2-ethyl-3H-imidazo[4,5-b]pyridin-5-yl]pyridine-2,6-diamine]
17 | 0.013 | 0.002 | – | 0.108 | – | CCC(CC)Cn1c(C)nc2ccc(-c3cc(N)nc(N)c3)nc21 [Example 18, 4-[3-(2-ethylbutyl)-2-methyl-3H-imidazo[4,5-b]pyridin-5-yl]pyridine-2,6-diamine]
18 | 0.011 | 0.015 | 1.26 | 0.25 | – | Cc1nc2ccc(-c3cc(N)nc(N)c3)nc2n1C [Example 4, 4-(2,3-dimethyl-3H-imidazo[4,5-b]pyridin-5-yl)pyridine-2,6-diamine]
19 | 0.011 | 0.006 | – | 0.063 | – | Cc1nc2ccc(-c3cc(N)nc(N)c3)nc2n1CCC1CC1 [Example 17, 4-[3-(2-cyclopropylethyl)-2-methyl-3H-imidazo[4,5-b]pyridin-5-yl]pyridine-2,6-diamine]
20 | 0.011 | 0.019 | – | 0.023 | – | CSCCCn1c(C)nc2ccc(-c3cc(N)nc(N)c3)nc21 [Example 44, 4-{2-methyl-3-[3-(methylsulfanyl)propyl]-3H-imidazo[4,5-b]pyridin-5-yl}pyridine-2,6-diamine]
21 | 0.01 | 0.004 | – | – | 0.012 | Cn1c(C(F)F)nc2ccc(-c3cc(N)nc(N)c3)nc21 [Example 228, 4-[2-(difluoromethyl)-3-methyl-3H-imidazo[4,5-b]pyridin-5-yl]pyridine-2,6-diamine]
22 | 0.009 | 0.002 | – | 0.07 | 0.003 | Cc1nc2ccc(-c3cc(N)nc(N)c3)nc2n1C1Cc2ccccc2C1 [Example 12, 4-[3-(2,3-dihydro-1H-inden-2-yl)-2-methyl-3H-imidazo[4,5-b]pyridin-5-yl]pyridine-2,6-diamine]
23 | 0.006 | 0.006 | – | – | 0.008 | Cc1nc2ccc(-c3cc(N)nc(N)c3)nc2n1CCC(C)(C)C [Example 52, 4-[3-(3,3-dimethylbutyl)-2-methyl-3H-imidazo[4,5-b]pyridin-5-yl]pyridine-2,6-diamine]
24 | 0.006 | 0.003 | – | 0.023 | 0.003 | Cc1nc2ccc(-c3cc(N)nc(N)c3)nc2n1C1CCCCC1 [Example 54, 4-(3-cyclohexyl-2-methyl-3H-imidazo[4,5-b]pyridin-5-yl)pyridine-2,6-diamine]
